Reference: paper PMC7894522, “Structure Based Design of Bicyclic Peptide Inhibitors of RbAp48” (Angewandte Chemie (International Ed. in English), 2020)
Starred links: 1 amine or outer side, 2 acyl side, 3 side chain; linkers in the order of their positions; H or OH if unused. Positions of bridges follow the written chain, without caps; N, C: chain ends. Residues, ends and D or L forms follow the SMILES beside them. TBMB = c1c(C[*:1])cc(C[*:3])cc1C[*:2]

Experiments:
[1] = Peptide stability in MDA-MB-231 whole cell lysate; type: in vitro ADME; conditions: human, 37°C, HPLC, duplicate
Description: To investigate whether the cyclization strategy influences the stability of the peptides we incubated 3, 8 and 33 in MDA‐MB‐231 cell lysate. […]
Fluorescence polarization assay […]
Isothermal Titration Calorimetry […]
Peptide stability was tested in whole cell lysate prepared from MDA-MB-231 cells using the freeze-thaw method. Peptides were dissolved in lysate (normalized to 5mg/ml protein using PBS) at 600 µM and incubated at 37°C. Samples were taken at different time points and mixed with an equal amount of MeOH containing 0.05 mg/ml ethylparaben as an i nternal standard. The samples were mixed and kept on ice for 15 minutes before centrifugation at 14000 rpm at 4 °C for 10 min. The supernatant was carefully removed and analyzed by HPLC. Peptide peaks were integrated and surface areas compared […]
Measurements were performed in duplicate.

[2] = biological target: RbAp48 (Homo sapiens, UniProt Q09028); assay: Competitive fluorescence polarization (FP) assay using complex of peptide 1 and RbAp48; type: binding; parameters: Full length RbAp48 was cloned; His tag followed by 3C cleavage site (N, cleaved yes); made in house; host or cells: Sf9 insect cells; conditions: Table 1; competitive FP, tracer peptide 1 1 nM, RbAp48 15 nM, 20 mM Tris-HCl, 150 mM NaCl, 0.01% Tween-20, pH 7.5, 30 min room temperature; lower limit set by 15 nM protein; read-out: IC50
Procedure, shortened: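 Sf9-expressed full-length RbAp48 (tag cleaved), 15 nM, displaced from 1 nM fluorescent peptide tracer in 20 mM Tris-HCl pH 7.5, 150 mM NaCl, 0.01% Tween-20. Read by FP (ex 485/em 535 nm) after 30 min at room temperature.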

Sequence of RbAp48 (Q09028 whole entry): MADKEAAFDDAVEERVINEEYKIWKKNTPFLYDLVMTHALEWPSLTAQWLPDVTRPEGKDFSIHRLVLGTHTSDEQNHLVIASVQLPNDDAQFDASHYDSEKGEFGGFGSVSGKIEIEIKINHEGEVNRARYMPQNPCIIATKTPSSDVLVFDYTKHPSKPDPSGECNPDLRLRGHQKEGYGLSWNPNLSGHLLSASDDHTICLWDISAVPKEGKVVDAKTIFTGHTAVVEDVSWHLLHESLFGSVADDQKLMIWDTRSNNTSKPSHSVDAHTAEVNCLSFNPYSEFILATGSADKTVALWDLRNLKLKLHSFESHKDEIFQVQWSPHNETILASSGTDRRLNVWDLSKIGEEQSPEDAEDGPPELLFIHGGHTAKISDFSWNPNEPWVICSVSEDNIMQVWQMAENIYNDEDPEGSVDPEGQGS

half-life at 600 µM ([1]; MDA-MB-231 whole cell lysate (freeze-thaw), 5 mg/ml protein in PBS, peptide 600 µM, read-out: t 1/2 (half-life)): 1.57 h
remaining at 1 h, 600 µM ([1]; T 60 min, MDA-MB-231 whole cell lysate 5 mg/ml protein, 600 µM, read-out: % left): 57.8%
remaining at 2 h, 600 µM ([1]; T 120 min, MDA-MB-231 whole cell lysate 5 mg/ml protein, 600 µM, read-out: % left): 41.4%
remaining at 4 h, 600 µM ([1]; T 240 min, MDA-MB-231 whole cell lysate 5 mg/ml protein, 600 µM, read-out: % left): 0%
IC50 [2]: 12.3 ± 2 nM
SMILES: CC(=O)N[C@H]1CSCc2cc3cc(c2)CSC[C@@H](C(=O)N[C@@H](C)C(N)=O)NC(=O)[C@@H]2CCCN2C(=O)[C@H](CCCCN)NC(=O)[C@H](Cc2ccc(O)cc2)NC(=O)[C@@H]2CCCN2C(=O)[C@H](CCCNC(=N)N)NC(=O)[C@H](CCCNC(=N)N)NC(=O)[C@H](C)NC(=O)[C@H](CSC3)NC(=O)[C@H](CCCNC(=N)N)NC(=O)[C@H](CCCCN)NC(=O)[C@H]([C@@H](C)O)NC1=O [Peptide 33] (Ac-CTKRCARRPYKPCA-NH2; linker 1-5-13 via TBMB)
